Reference: patent US20240286998A1, “F[…], ANALOGUES THEREOF, AND METHODS USING SAME” (Saint Joseph's University, priority 2021, published 2024)
Read-outs that look alike come from different tables or passages of the source.

Tests used:
5-HT1A = 5-HT1A (Homo sapiens (Human), UniProt P08908); test: 5-HT1A Gi/o-mediated cAMP inhibition, GloSensor assay; assay type: cell-based
5-HT2B = 5-HT2B (Homo sapiens (Human), UniProt P41595); test: 5-HT2B Gq-mediated calcium flux functional assay; assay type: cell-based
Chain of 5-HT2B (P41595 whole entry): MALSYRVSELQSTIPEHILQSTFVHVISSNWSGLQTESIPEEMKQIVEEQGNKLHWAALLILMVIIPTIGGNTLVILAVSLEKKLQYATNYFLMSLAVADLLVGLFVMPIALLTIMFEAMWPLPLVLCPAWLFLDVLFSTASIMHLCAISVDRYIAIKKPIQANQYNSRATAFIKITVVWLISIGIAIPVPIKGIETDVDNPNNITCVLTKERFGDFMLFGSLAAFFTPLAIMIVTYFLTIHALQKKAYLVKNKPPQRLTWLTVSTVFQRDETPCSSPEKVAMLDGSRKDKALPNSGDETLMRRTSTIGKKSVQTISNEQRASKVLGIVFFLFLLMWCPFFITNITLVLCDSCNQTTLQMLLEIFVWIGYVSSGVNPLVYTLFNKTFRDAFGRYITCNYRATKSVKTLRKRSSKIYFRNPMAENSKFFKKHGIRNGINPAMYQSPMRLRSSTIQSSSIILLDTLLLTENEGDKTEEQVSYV

C57BL/6J mice [1] = test: Head-Twitch Response (HTR) in mice; assay type: in vivo; details: for ED50: Mus musculus, ip, 0.5 h; for HTR counts over baseline / induction of HTR: compared to vehicle
Description: Male C57BL/6J mice (6-8 weeks old) were obtained from Jackson Laboratories (Bar Harbor, ME) and housed in a vivarium at the University of California San Diego, an AAALAC-approved animal facility that meets all federal and state requirements for care and treatment of laboratory animals. All animal experiments were carried out in accordance with NIH guidelines and were approved by the UCSD Institutional Animal Care and Use Committee. Mice were housed up to four per cage in a climate-controlled room on a reverse-light cycle (lights on at 1900 h, off at 0700 h). Animals were provided with ad libitum access to food and water, with the exception of during behavioral testing.
Testing was conducted between 1000 and 1800 h. Head movements were recorded using a head-mounted magnet and a magnetometer coil as described in Halberstadt et al. (Psychopharmacology, 2013, 227(4):727-739). For the head mounted magnet, mice were anesthetized, an incision was made in the scalp, and a neodymium magnet was attached to the dorsal surface of the cranium using dental cement. Following a 2-week recovery period, behavioral experiments were conducted in a well-lit room. At least 7 days occurred between sessions to avoid any carryover effects. Test substances (i.e., dimethyltryptamine (DMT), diethyltryptamine (DET), psilocybin, 6-fluoro-diethyltryptamine (6-F-DET), compounds 3-4, 6, 9, 12-13, 22, 33, 41, 69, 88, 166, and 178) were administered intraperitoneally (IP) at a volume of 5 mL/kg. Mice were treated with vehicle (saline) or 6 doses of the test compound and then placed in a glass cylinder surrounded by a magnetometer coil and tested for 30 min. Coil voltage was filtered (1 kHz lowpass), digitized (20 kHz sampling rate) and saved to disk using a Powerlab/8SP with LabChart v 7.3.2 (ADInstruments, Colorado Springs, CO).
The entire 30 min recordings were examined for head twitches. Established procedures based on artificial intelligence were used to identify head twitches in the recordings (Scientific Reports, 2020, 10(1):1-12). HTR counts were analyzed using one-way analyses of variance (ANOVA), followed by post hoc pairwise comparisons between individual groups and vehicle using Dunnett's multiple comparisons test. […] Median effective doses (ED50 values) and 95% confidence intervals (95% CI) were calculated using nonlinear regression (Prism 9.0.2, GraphPad Software, San Diego, CA) (Table 4 and FIGS. 1-3).

5-HT2A = 5-HT2A (Homo sapiens (Human), UniProt P28223); test: 5-HT2A Gq-mediated calcium flux functional assay; assay type: cell-based
5-HT2C = 5-HT2C (Homo sapiens (Human), UniProt P28335); test: 5-HT2C Gq-mediated calcium flux functional assay; assay type: cell-based
Chain of 5-HT2C (P28335 whole entry, looked up): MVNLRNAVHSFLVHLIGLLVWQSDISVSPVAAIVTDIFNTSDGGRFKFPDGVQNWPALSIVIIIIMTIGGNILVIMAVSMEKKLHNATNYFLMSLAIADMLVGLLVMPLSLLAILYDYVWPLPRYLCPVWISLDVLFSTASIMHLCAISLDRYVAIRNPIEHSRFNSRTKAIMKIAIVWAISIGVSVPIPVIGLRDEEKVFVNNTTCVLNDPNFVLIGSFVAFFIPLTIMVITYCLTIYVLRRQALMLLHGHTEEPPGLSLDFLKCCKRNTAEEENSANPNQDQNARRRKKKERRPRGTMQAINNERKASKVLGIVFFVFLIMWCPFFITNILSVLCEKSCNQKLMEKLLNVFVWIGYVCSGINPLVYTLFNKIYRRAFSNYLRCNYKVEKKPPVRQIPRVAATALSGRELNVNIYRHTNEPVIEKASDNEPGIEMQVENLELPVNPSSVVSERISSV

Serotonin 5-HT2A (human) = Serotonin 5-HT2A (human) (Homo sapiens (Human), UniProt P28223); test: 5-HT2A receptor binding, [3H]-ketanserin competition in membrane fractions; details: 1 nM [3H]-ketanserin, Cheng-Prusoff, N=1-3
human hepatocytes = test: Metabolic stability in cryopreserved human hepatocytes; assay type: in vitro ADME; details: for metabolism by human hepatocytes: qualitative statement
Description: (§1) The metabolic stability of a test compounds were assessed by monitoring disappearance of each compound in the presence of cryopreserved hepatocytes for up to 1 hour at 37° C. Following protein precipitation and centrifugation, the samples were analyzed by UPLC-MS-MS. Test Compound stock solutions (10 mM) were diluted 1 in 100 (2 μL 10 mM DMSO stock+198 μL 50:50 acetonitrile:water) to provide a 100 μM working solution. Following addition of test compounds to buffer, samples were pre-incubated at 37° C. for 5 minutes prior to initiating the incubation by the addition of test compounds to hepatocytes (these were held at 37° C. during pre-incubation period). Aliquots were sampled at 0, 5, 10, 20, 40 and 60 min and added to ice cold acetonitrile to terminate the reaction and precipitate proteins. All samples were mixed, centrifuged, and the supernatants were analyzed by UPLC-MS-MS using a Phenomenex Luna Omega […], C18 100 Å, 50×2.1 mm column. The final incubation conditions were as follows: hepatocytes 0.5×10^6 viable cells/mL, test compound 1 μM (n=1), acetonitrile concentration<0.01% (v/v) and DMSO concentration<0.01% (v/v). The intrinsic clearance (Clint) and half-life (T1/2) values are determined from the slope of the parent depletion curve. Positive control compounds with known metabolic clearance were included (diltiazem and naloxone).

[2] = as above; assay type: in vitro ADME; details: cryopreserved hepatocytes, human hepatocytes, 1 μM, 37° C.; for hepatocyte CLint at 1 μM: read-out: Clint (μL/min/10^6 cells)
Description: as §1

C57BL/6J mice [3] = details: reported values of known 5HT2A agonists run under comparable conditions; dash = ED50 could not be estimated; cited from earlier work
[4] = In vivo intravenous pharmacokinetic study in rats; parameters: species or system Sprague Dawley rats; details: rat, mean; for Vd: iv, 1 mg/kg
Description: For the in vivo stability study described herein, 1 mg/kg of drug was administered by intravenous injection (i.e., dose volume 2 mL/kg, vehicle 5% DMSO:95% hydroxypropyl-beta-cyclodextrin (20% w/v in water)) to three male Sprague Dawley rats (˜300 g at time of dosing). Blood samples (˜240 μL) were collected via venipuncture at various time points (5, 15, 30, 60 120 240, 480 and 1,440 min) into K2EDTA-coated tubes. The samples were spun at 10,000 rpm (9,600×G) for 2 minutes. 100 μL of the resulting plasma was then collected and stored at −80° C. until analyzed by HPLC as described above.
Compound 3 administered intravenously (1 mg/kg); Vehicle: 5% DMSO, 95% 2-hydroxypropyl-β-cyclodextrin (HPBCD) (20% w/v in water); Plasma concentrations were quantified at multiple time points by UHPLC-MS-MS; N=3.

[5] = cAMP inhibition, 0.2 μM isoproterenol, IA = Inactive
[6] = read-out: HTR ED50 μmol/kg (95% CI)
[7] = read-out: HTR ED50 mg/kg (95% CI)
[8] = human hepatocytes, 1 μM, 37° C.
[9] = male, Sprague Dawley, plasma, intravenous 1 mg/kg, N=3

SMILES	EC50 (5-HT1A) [nM]	5-HT1A-cAMP Emax (% 5-HT) (5-HT1A; [5])	EC50 (5-HT2B) [nM]	5-HT2B-Ca2+ FLUX Emax (% 5-HT) (5-HT2B; IA = Inactive, N=1-3)	ED50 (C57BL/6J mice [1]; [6]) [µmol/kg]	ED50 (C57BL/6J mice [1]; [7]) [mg/kg]	EC50 (5-HT2A) [nM]	5-HT2A-Ca2+ FLUX Emax (% 5-HT) (5-HT2A; IA = Inactive, N=1-3)	EC50 (5-HT2C) [nM]	5-HT2C-Ca2+ FLUX Emax (% 5-HT) (5-HT2C; IA = Inactive, N=1-3)	5-HT2A pKi ± SEM (Serotonin 5-HT2A (human))	half-life at 1 μM [2] [min]	hepatocyte CLint at 1 μM [2] [µL/min/1e6 cells]	other results
CCCN(CCc1c[nH]c2ccc(F)cc12)C(C)C [Example 4, N-(2-(5-fluoro-1H-indol-3-yl)ethyl)-N-isopropylpropan-1-amine]	331	80.5 ± 2.5	0.759	105.60 ± 0.7	2.18	0.65	0.468	99.5 ± 1.1	9.12	74.6 ± 2.0	6.02 ± 0.07	13	109	HTR counts over baseline / induction of HTR (C57BL/6J mice [1]): significant increase; metabolism by human hepatocytes (human hepatocytes): rapidly metabolized
CCCN(C)CCc1c[nH]c2ccc(F)cc12 [Example 13, N-(2-(5-fluoro-1H-indol-3-yl)ethyl)-N-methylpropan-1-amine]	245	85.8 ± 2.5	2.63	77.0 ± 1.2	4.81	1.13	1.58	103.0 ± 1.1	1.51	115.0 ± 4.0	6.72 ± 0.12	–	–	melting point: 80 to 82 °C
CN(C)CCc1c[nH]c2cccc(OP(=O)(O)O)c12 [Psilocybin]	–	–	–	–	–	–	–	–	–	–	–	–	–	HTR ED50 μmol/kg (95% CI) (C57BL/6J mice [3]): 1.40 µmol/kg; HTR ED50 mg/kg (95% CI) (C57BL/6J mice [3]): 0.38 mg/kg
CCCN(CCc1c[nH]c2ccc(F)cc12)C1CCC1 [compound 33, N-(2-(5-fluoro-1H-indol-3-yl)ethyl)-N-propylcyclobutanamine]	14.5	100.7 ± 1.3	0.589	115.6 ± 2.2	2.55	0.79	0.49	107.0 ± 1.9	19.1	105.4 ± 1.8	6.25 ± 0.003	–	–	5-HT1A-cAMP pEC50 (5-HT1A; [5]): 7.84 ± 0.04; 5-HT2B-Ca2+ FLUX pEC50 (5-HT2B; IA = Inactive, N=1-3): 9.23 ± 0.07; 5-HT2A-Ca2+ FLUX pEC50 (5-HT2A; IA = Inactive, N=1-3): 9.31 ± 0.06; 5-HT2C-Ca2+ FLUX pEC50 (5-HT2C; IA = Inactive, N=1-3): 7.72 ± 0.05
CCCN(CC)CCc1c[nH]c2cc(F)c(F)cc12 [Example 9, N-(2-(5,6-difluoro-1H-indol-3-yl)ethyl)-N-ethylpropan-1-amine]	229	89.1 ± 2.9	1.7	96.6 ± 2.0	3	0.91	1.02	105.7 ± 1.9	19.1	100.7 ± 3.0	6.15 ± 0.21	–	–	melting point: 83 to 86 °C; HTR counts over baseline / induction of HTR (C57BL/6J mice [1]): significant increase
COc1ccc([C@@H]2Sc3ccccc3N(CCN(C)C)C(=O)[C@@H]2OC(C)=O)cc1 [diltiazem, reference compound]	–	–	–	–	–	–	–	–	–	–	–	–	–	Clint (μL/min/10^6 cells) (human hepatocytes; [8]): 32 μL/min/10^6 cells; T1/2 (human hepatocytes; [8]): 44 min
C=CCN1CC[C@]23c4c5ccc(O)c4O[C@H]2C(=O)CC[C@@]3(O)[C@H]1C5 [naloxone, reference compound]	–	–	–	–	–	–	–	–	–	–	–	10	138	–
CCC(C)N(C)CCc1c[nH]c2ccc(F)cc12 (stereo not drawn) [Example 3, N-(2-(5-fluoro-1H-indol-3-yl)ethyl)-N-methylbutan-2-amine]	3890	83.3 ± 5.7	9.12	37.5 ± 1.5	6.28	1.79	3.72	94.8 ± 0.8	49	56.0 ± 0.9	6.23 ± 0.30	11	132	AUC [4, 9]: 594 ng·h/mL; AUC(0-inf) [4, 9]: 597 ng·h/mL; C0 [4, 9]: 2490 ng/mL; clearance [4, 9]: 29.5 mL/min/kg; half-life ([4]; male, Sprague Dawley, plasma, intravenous 1 mg/kg, N=3, read-out: Half-Life (converted)): 65.4 min; Vd ([4]; male, Sprague Dawley, plasma, N=3, read-out: Vss): 0.999 L/kg; Vd ([4]; male, Sprague Dawley, plasma, N=3, read-out: Vz): 3.04 L/kg; AUC % Extrapolation to C0 ([4]; intravenous 1 mg/kg, N=3): 27.7%; AUC % Extrapolation to Inf ([4]; intravenous 1 mg/kg, N=3): 0.570%; half-life ([4]; intravenous 1 mg/kg, N=3): 65.4 min; metabolism by human hepatocytes (human hepatocytes): rapidly metabolized
CCCN(CCc1c[nH]c2ccc(F)cc12)C(C)CC (stereo not drawn) [compound 22, N-(2-(5-fluoro-1H-indol-3-yl)ethyl)-N-propylbutan-2-amine]	324	102.90 ± 1.9	0.813	98.9 ± 1.6	12.4	3.88	0.891	105.4 ± 1.6	50.1	97.5 ± 2.6	5.97 ± 0.02	–	–	–
